“And” between values parts separate entries of the source, which are not always exact repeats. Identical values can stand only once.
Columns and labels:
Format in all cases: in vivo
[1] = system: RenTG/L-NAME-supplemented female rats; test: RenTG rat model: survival rate assessment in female rats (B-1.3); conditions: 3 mg/kg BID, placebo 64.3%
Method: Male and female rennin-transgenic rats [TG(mRRen2)27] (RenTG rats) at the age of 8 weeks were used. Rats were randomized in groups with 12-24 rats/group. All groups were then chronically supplemented with L-NAME administrated via drinking water (30-50 mg/l). The L-NAME was dissolved in tap water and stored by room temperature. All groups were treated via oral gavage with either placebo/vehicle consisting of 10% transcutol, 20% cremophor and 70% tap water or different doses of the respective verum. The verum was dissolved in the vehicle and prepared freshly before administration. Study duration with concomitant L-NAME administration and treatment was up to 12 weeks. The baseline blood pressure was measured via tail-cuff method before the start of the treatment and after different time points during the study. Mortality and body weight were assessed on a daily basis. Urine samples were collected via the use of metabolic cages and urine was collected over a period of six hours to quantify proteinuria as correlate of kidney function and different urinary biomarkers for kidney and organ damage. At the end of the study all animals were kept in depth narcotic and bled via aortic puncture and sacrificed by permanent inhaled isoflurane, blood was taken in order to assess plasma parameters, and heart and kidney were weighed and harvested for histopathological evaluation. […]

[2] = system: RenTG/L-NAME-supplemented male rats; test: RenTG rat model: survival rate assessment in male rats (B-1.1); conditions: for mortality: placebo 58%
Method: (§1) Male and female rennin-transgenic rats [TG(mRRen2)27] (RenTG rats) at the age of 8 weeks were used. Rats were randomized in groups with 12-24 rats/group. All groups were then chronically supplemented with L-NAME administrated via drinking water (30-50 mg/l). The L-NAME was dissolved in tap water and stored by room temperature. All groups were treated via oral gavage with either placebo/vehicle consisting of 10% transcutol, 20% cremophor and 70% tap water or different doses of the respective verum. The verum was dissolved in the vehicle and prepared freshly before administration. Study duration with concomitant L-NAME administration and treatment was up to 12 weeks. The baseline blood pressure was measured via tail-cuff method before the start of the treatment and after different time points during the study. Mortality and body weight were assessed on a daily basis. Urine samples were collected via the use of metabolic cages and urine was collected over a period of six hours to quantify proteinuria as correlate of kidney function and different urinary biomarkers for kidney and organ damage. At the end of the study all animals were kept in depth narcotic and bled via aortic puncture and sacrificed by permanent inhaled isoflurane, blood was taken in order to assess plasma parameters, and heart and kidney were weighed and harvested for histopathological evaluation.
The survival rate in % of the RenTG/L-NAME-supplemented male rats treated with either placebo, or 1, 3 and 10 mg/kg runcaciguat (example 1) BID was investigated (see table 1).

[3] = system: RenTG/L-NAME-supplemented male rats; test: RenTG rat model: kidney function by proteinuria (uPCR) in male rats (B-1.2); conditions: for uPCR % (normalized to placebo): placebo set as 100%
Method: as §1
Urinary protein to creatinine ratio in the RenTG/L-NAME-supplemented male rats treated with either placebo (set as 100%) or with 1, 3 and 10 mg/kg example 1 (runcaciguat) BID was investigated (see table is 2).

[4] = system: RenTG/L-NAME-supplemented female rats; test: RenTG rat model: kidney function by proteinuria (uPCR) in female rats (B-1.4); conditions: 3 mg/kg BID; for uPCR % (normalized to placebo): placebo set as 100%
Method: as §1
Urinary protein to creatinine ratio in the RenTG/L-NAME-supplemented female rats treated with either placebo (set as 100%) or 3 mg/kg example 1 BID or example 3 BID respectively. Data are mean±SEM.

[5] = system: RenTG/L-NAME-supplemented male, female and female OVX rats; test: RenTG rat model: survival rate in male, female and female ovariectomized (OVX) rats, head-to-head, OD dosing (B-1.5); conditions: for % survival: 3 mg/kg OD
Method: as §1
In male rat 93% of rats survived whereas in female rats all the rats survived in the sGC activator treatment arm (100%). There was no difference in survival rates in female OVX rats compared to non-OVX rats.

[6] = system: RenTG/L-NAME-supplemented male, female and female OVX rats; test: RenTG rat model: proteinuria (uPCR) in male, female and female OVX rats, OD dosing (B-1.6); conditions: for Urinary protein to creatinine ratio: 3 mg/kg OD, placebo 100; for reduction of proteinuria: OD
Method: as §1
The most striking differences between male and female were seen on proteinuria. […] In female rats these effects were much more pronounced, and proteinuria was reduced by 88% and by 99% in female rats without OVX and with OVX, respectively.

C[C@H]([C@H](C(=O)Nc1cc([C@@H](CC(=O)O)C2CC2)ccc1Cl)c1ccc(Cl)cc1)C(F)(F)F [Example 1, (3S)-3-(4-chloro-3-{[(2S,3R)-2-(4-chlorophenyl)-4,4,4-trifluoro-3-methylbutanoyl]amino}phenyl)-3-cyclopropylpropanoic acid]
% survival [1]: 100% | lower survival of male compared to female rats ([2]; 3 mg/kg BID, male rats at the point of 64% control survival vs female rats): 30% | % survival ([2]; male rats, 1 mg/kg BID p.o.): 44% | mortality ([2]; male rats, 1 mg/kg BID p.o.): 56% | survival rate at the point when 64% of the male control animals were still alive ([2]; male rats, 3 mg/kg BID): 70% | statistical evaluation of mortality reduction ([2]; male rats, 3 mg/kg BID p.o.): strong numerical trend | % survival ([2]; male rats, 3 mg/kg BID p.o., 3 mg/kg): 60% and 61% | mortality ([2]; male rats, 3 mg/kg BID p.o.): 39% | % survival ([2]; male rats, 10 mg/kg BID p.o.): 72% | statistical evaluation of mortality reduction ([2]; male rats, 10 mg/kg BID p.o.): reached statistical significance | mortality ([2]; male rats, 10 mg/kg BID p.o.): 28% | effect on survival rates ([2]; male rats, 1, 3 and 10 mg/kg BID p.o.): dose-dependently increased the survival rates | reduction of proteinuria ([3]; 1 mg/kg BID): 15% | uPCR % (normalized to placebo) ([3]; 1 mg/kg BID): 85.4% | reduction of proteinuria ([3]; 3 mg/kg BID): 29% | statistical evaluation of proteinuria reduction ([3]; 3 mg/kg BID): statistically significant | uPCR % (normalized to placebo) ([3]; 3 mg/kg BID): 71.1% | reduction of proteinuria ([3]; 10 mg/kg BID): 39% | statistical evaluation of proteinuria reduction ([3]; 10 mg/kg BID): statistically significant | uPCR % (normalized to placebo) ([3]; 10 mg/kg BID): 60.6% | reduction of proteinuria [4]: 55% | uPCR % (normalized to placebo) [4]: 44.5%

CC(C)CN1CCN(c2ccc(-c3ccc(Cl)cc3N3CCC[C@@H](n4ncc(C(=O)O)c4C(F)F)C3)cc2)CC1 [Example 3, 1-{3(R)-1-[4-Chloro-4′-(4-isobutylpiperazin-1-yl)[biphenyl]-2-yl]piperidin-3-yl}-5-(difluoromethyl)-1H-pyrazole-4-carboxylic acid]
% survival ([1]; 3 mg/kg): 92,3% | % survival ([5]; female OVX rats, placebo 40%): 100% | % survival ([5]; female rats, placebo 47%): 100% | % survival ([5]; male rats, placebo 60%): 93% | survival rate in male rats lower than in female rats ([5]; once daily dosing (OD)): 7% | survival rates in female OVX rats compared to non-OVX rats ([5]; once daily dosing (OD)): no difference | Urinary protein to creatinine ratio ([6]; female OVX rats): 1 | reduction of proteinuria ([6]; female rats with OVX): 99% | reduction of proteinuria ([6]; female rats without OVX): 88% | Urinary protein to creatinine ratio ([6]; female rats): 12 | Urinary protein to creatinine ratio ([6]; male rats): 43 | reduction of proteinuria ([6]; male rats): 57% | reduction of proteinuria [4]: 84% | uPCR % (normalized to placebo) [4]: 16.4%
